Measured values taken from patent US5436231A, “Adenophostins” (Sankyo Company, Limited, priority 1991, dated 1995).

What was measured:
[1] = system: endoplasmic reticulum (microsome) of rat cerebellum; assay: 45Ca++ releasing activity from the endoplasmic reticulum; format: biochemical; settings: 1 minute after addition, 30° C., pH 7.2; for calcium ion released of that incorporated into the endoplasmic reticulum: compound at 10 nM
Experimental: (§1) Adenophostins A and B were characterized by their inhibitory activity on [^3 H]-InsP3 binding to rat cerebellar InsP3 receptors, and the ^45 Ca^++ releasing activity from the endoplasmic reticulum, which was prepared from rat cerebellum.
^45 Ca^++ Releasing activity from the endoplasmic reticulum
The ^45 Ca^++ releasing activity from the endoplasmic reticulum was assayed using the method reported by Supattapone et al. [Proc. Natl, Acad. Sci. USA 85, 8747-8750 (1988)] with slight modifications.
The endoplasmic reticulum (microsome) of rat cerebellum was suspended in 10 mM of a HEPES-KOH buffer (pH 7.2) containing 100 mM of potassium chloride, 2.5 mM of magnesium chloride, 1 mM of dithiothreitol (DTT), 10 mM of creatine phosphate, creatine kinase (10 units/ml), 2 μg/ml of oligomycin, 50 μM of calcium chloride containing 1 μCi/ml of ^45 Ca, and 0.12 mM of ethylene glycol bis(2-aminoethyl ether)-N,N,N',N'-tetraacetic acid (EGTA), and the protein concentration in the suspension was adjusted to 0.5 mg/ml. 1 mM of adenosine triphosphate magnesium salt was added to 1 ml of this suspension, and the mixture was incubated for 11 minutes at 30° C. in order to incorporate the ^45 Ca^++ into the endoplasmic reticulum. InsP3, adenophostin A or adenophostin B was then added to release the incorporated ^45 Ca^++ from the endoplasmic reticulum. 10 minutes after the addition of the adenosine triphosphate magnesium salt (1 minute before the addition of the adenophostins or InsP3), and then 12 minutes after the addition of the adenosine triphosphate magnesium salt (1 minute after the addition of the adenophostins or InsP3), 100 μl of the reaction solution was removed, and the sampled solution was filtered through a Milipore filter (HA, […], Product of Milipore) to collect the. endoplasmic reticulum on the filter. The filter was washed with 4 ml of a 10 mM HEPES-KOH buffer (pH 7.2) containing 100 mM of potassium chloride and 1 mM of EGTA, and the radioactivity on the filter was determined by the addition of 5 ml of Pico-flow (a trade name for a product of Packard Co.) agents.

[2] = target: T1, rat cerebellar InsP3 receptors (Rattus norvegicus, UniProt P29994); assay: Inhibitory activity on [3H]-InsP3 binding to InsP3 receptors; settings: rat cerebellar membrane fraction; 10 nM [3H]-InsP3; 5 minutes, room temperature; pH 8.0; read-out: IC50 (concentration required to inhibit the binding of [3H]-InsP3 by 50%)
T1 construct: A rat cerebellar membrane fraction was homogenized; from tissue; host or cells: rat cerebellum, membrane fraction
Experimental: as §1
Inhibitory activity on [^3 -H]-InSP3 binding to InsP3 receptors
The inhibitory activity of [^3 H]-InsP3 binding was assayed according to the method of Worley et al. [J. Biol. Chem. 262, 12132-12136 (1987)].
A rat cerebellar membrane fraction was homogenized in 50 mM of Tris-HC1 (pH 8.0) and 1 mM of ethylenediaminetetraacetic acid, and the protein concentration in the homogenized material was adjusted to 0.6 mg/ml. 1 ml of this cerebellar homogenate was taken and 10 nM of [^3 H]-InsP3and either adenophostin A or adenophostin B were added to it. The mixture was incubated for 5 minutes at room temperature, and then centrifuged for 5 minutes at 12,000 rpm at a temperature of 4° C. The supernatant was removed and the precipitated cerebellar membrane fraction was dissolved in 5 ml of Pico-flow (a trade name for a product of Packard Co.) to determine its radioactivity. The bound [^3 H]-InsP3 was then determined.
IC50 indicates the concentration required to inhibit the binding of [^3 H]-InsP3 by 50%.

Solubility = format: physicochemical; settings: for Solubility in lower alcohols: such as methanol or ethanol

T1 sequence (P29994 whole entry): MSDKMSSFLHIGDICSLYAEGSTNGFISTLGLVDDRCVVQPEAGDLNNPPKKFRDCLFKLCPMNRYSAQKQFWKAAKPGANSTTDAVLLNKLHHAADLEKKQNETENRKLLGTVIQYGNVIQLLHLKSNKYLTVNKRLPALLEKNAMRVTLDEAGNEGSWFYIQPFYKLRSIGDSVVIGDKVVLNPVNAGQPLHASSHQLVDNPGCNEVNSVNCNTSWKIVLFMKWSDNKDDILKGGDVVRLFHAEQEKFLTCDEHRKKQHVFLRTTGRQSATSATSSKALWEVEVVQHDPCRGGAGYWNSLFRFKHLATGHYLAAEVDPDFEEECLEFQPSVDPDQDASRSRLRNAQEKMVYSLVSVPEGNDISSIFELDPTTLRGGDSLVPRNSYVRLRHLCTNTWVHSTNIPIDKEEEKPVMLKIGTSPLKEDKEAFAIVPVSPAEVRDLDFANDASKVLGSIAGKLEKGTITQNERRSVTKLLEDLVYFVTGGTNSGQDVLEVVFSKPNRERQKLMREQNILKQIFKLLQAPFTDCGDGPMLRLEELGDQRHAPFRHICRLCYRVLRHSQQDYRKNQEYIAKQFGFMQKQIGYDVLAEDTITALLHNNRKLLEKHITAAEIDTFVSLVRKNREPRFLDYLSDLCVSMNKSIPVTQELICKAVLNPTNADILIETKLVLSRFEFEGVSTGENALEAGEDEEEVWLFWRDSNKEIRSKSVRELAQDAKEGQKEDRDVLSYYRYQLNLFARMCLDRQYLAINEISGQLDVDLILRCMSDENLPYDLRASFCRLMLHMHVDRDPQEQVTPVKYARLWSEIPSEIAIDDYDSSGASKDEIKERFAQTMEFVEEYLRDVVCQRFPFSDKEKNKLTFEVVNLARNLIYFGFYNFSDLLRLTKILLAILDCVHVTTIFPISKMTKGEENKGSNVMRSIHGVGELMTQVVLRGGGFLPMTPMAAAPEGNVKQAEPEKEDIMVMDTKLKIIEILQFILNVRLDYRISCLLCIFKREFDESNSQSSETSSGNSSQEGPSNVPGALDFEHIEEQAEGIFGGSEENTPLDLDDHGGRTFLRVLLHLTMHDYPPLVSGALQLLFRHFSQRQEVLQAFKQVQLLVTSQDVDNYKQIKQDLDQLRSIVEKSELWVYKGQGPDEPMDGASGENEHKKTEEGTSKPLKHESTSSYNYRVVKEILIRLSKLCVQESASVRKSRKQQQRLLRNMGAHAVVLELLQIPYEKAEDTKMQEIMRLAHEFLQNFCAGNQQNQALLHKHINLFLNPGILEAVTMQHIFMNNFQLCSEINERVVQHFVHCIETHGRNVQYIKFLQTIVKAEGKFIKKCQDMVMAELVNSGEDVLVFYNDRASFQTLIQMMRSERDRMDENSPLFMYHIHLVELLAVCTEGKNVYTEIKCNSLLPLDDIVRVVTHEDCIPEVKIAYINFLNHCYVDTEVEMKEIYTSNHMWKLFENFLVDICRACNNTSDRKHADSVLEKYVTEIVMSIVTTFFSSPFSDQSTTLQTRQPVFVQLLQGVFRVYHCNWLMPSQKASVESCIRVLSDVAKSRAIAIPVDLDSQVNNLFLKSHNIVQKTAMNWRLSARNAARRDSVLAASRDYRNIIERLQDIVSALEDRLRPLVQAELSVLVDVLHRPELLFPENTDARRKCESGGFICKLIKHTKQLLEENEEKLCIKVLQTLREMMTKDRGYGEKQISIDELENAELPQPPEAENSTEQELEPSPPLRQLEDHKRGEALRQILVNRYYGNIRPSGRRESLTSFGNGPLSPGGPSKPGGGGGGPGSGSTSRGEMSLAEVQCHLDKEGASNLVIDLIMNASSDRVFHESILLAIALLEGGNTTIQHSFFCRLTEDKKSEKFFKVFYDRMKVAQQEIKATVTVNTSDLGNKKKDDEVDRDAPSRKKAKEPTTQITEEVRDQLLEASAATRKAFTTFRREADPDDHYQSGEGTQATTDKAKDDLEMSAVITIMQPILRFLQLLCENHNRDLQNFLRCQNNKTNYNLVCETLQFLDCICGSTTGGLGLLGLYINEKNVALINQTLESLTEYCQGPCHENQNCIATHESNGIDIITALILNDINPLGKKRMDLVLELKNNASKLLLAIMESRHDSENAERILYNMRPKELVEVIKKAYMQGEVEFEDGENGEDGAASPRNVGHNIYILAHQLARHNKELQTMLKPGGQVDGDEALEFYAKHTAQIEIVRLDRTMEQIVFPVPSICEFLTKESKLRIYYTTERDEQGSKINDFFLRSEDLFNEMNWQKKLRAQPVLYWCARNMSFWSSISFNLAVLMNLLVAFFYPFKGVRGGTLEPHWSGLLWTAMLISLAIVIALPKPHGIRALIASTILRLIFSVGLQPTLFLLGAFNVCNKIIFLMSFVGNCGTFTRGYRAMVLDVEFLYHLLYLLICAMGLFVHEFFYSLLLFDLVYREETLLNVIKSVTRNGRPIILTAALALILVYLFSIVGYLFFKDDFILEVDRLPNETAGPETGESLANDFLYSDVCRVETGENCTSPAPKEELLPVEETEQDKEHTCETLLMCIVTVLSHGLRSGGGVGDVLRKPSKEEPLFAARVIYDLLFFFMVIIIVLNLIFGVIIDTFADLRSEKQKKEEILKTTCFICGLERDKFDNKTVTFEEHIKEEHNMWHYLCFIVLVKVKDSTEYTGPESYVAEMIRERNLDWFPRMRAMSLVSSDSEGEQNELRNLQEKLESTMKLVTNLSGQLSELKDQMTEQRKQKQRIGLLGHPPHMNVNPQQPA

SMILES | calcium ion released of that incorporated into the endoplasmic reticulum (adenophostin activities at 10 nM stated equal to that of InsP3) ([1]; InsP3 at 10 μM) | IC50 [2] | calcium ion released of that incorporated into the endoplasmic reticulum [1] | Solubility in acetone, ethyl acetate or chloroform (Solubility) | Solubility in lower alcohols (Solubility) | Solubility in water and dimethyl sulfoxide (Solubility)
O=P(O)(O)O[C@@H]1[C@H](O)[C@H](O)[C@@H](OP(=O)(O)O)[C@H](OP(=O)(O)O)[C@H]1O [InsP3, inositol 1,4,5-trisphosphate, reference compound] | 35% |  |  |  |  | 
Nc1ncnc2c1ncn2[C@@H]1O[C@H](CO)[C@@H](O[C@H]2O[C@H](CO)[C@@H](OP(=O)(O)O)[C@H](OP(=O)(O)O)[C@H]2O)[C@H]1OP(=O)(O)O [adenophostin A] |  | 6 nM | 35% | insoluble | slightly soluble | Soluble
CC(=O)OC[C@H]1O[C@H](O[C@H]2[C@@H](OP(=O)(O)O)[C@H](n3cnc4c(N)ncnc43)O[C@@H]2CO)[C@H](O)[C@@H](OP(=O)(O)O)[C@@H]1OP(=O)(O)O [adenophostin B] |  | 8 nM | 35% | insoluble | slightly soluble | Soluble
